System: Human dermal fibroblast cells
Assay: MTS-based cell viability assay on fiber mats
Details: 24 hours culture
Experimental: Human dermal fibroblast cells were cultured according to the procedures recited in Biomacromolecules, 2005, 6 (5), pp 2583-2589. Briefly, cells were cultured in DMEM medium (Gibco®) supplemented with 10% (v/v) fetal bovine serum, 50 U/ml penicillin and 50 μg/ml streptomycin in a humidified incubator at 37° C. and 5% CO2. All the cell culture reagents were obtained from Life Technologies Corporation (Singapore). For biocompatibility experiments, cells were seeded onto the coverslips precoated with scaffolds and placed at the bottom of the 12-well plates (Nunc®) at a density of 10×10^4 cells/well and allowed to grow for 24 hours before analysis. For the negative control well(s), nocodazole was added to a final concentration of 5 μg/mL in the culture medium.
Cell viability was determined using CellTier 96® Aqueous One solution cell proliferation assay kit according to the manufacturer's instruction (Promega Corporation, Madison, Wis.), and according to the procedures recited in Kim B J et al., Reinforced multifunctionalized nanofibrous scaffolds using mussel adhesive proteins, Angew Chem Int Ed Eng, 2012; 51:675-8. This assay evaluates mitochondrial function by measuring the ability of viable cells to reduce MTS ((3-(4,5-dimethylthiazol-2-yl)-5-(3-carboxymethoxyphenyl)-2-(4-sulfophenyl)-2H-tetrazolium)) into a quantifiable […] formazon product. […]

## COC(=O)Nc1nc2ccc(C(=O)c3cccs3)cc2[nH]1 [nocodazole]
  effect on cell viability (MTS): significant cell death

— US20180193209A1, “A POLYMER PRODUCT AND PREPARATION THEROF” (SINGAPORE HEALTH SERVICES PTE LTD., priority 2015, published 2018)
